Seven compounds from PubChem BioAssay (NCI) can be followed below.

What all share (assay): NCI tumour cell line growth inhibition, 48 h
In experiment [1] the test system is HCT-116 colon.
For experiment [2], the system named is HOP-92 NSCLC.
For experiment [3], the system named is KM12 colon.
Experiment [4] relates to PC-3 prostate.
Experiment [5] deals with SK-MEL-28 melanoma.
The subject of experiment [6] is SN12C renal.
The test system of experiment [7] is SR leukemia.
Experiment [8] relates to TK-10 renal.
In experiment [9] the test system is U251 CNS.
Experiment [10] deals with UACC-62 melanoma.

Several values for one entry are separate records, joined by “and”; a condition that tells them apart may be missing. Identical values can stand only once.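 Grown in 96-well plates, cells were treated for 48 hours with each compound at five concentrations. Insufficient inhibition: endpoint recorded as highest concentration tested. GI50 is the concentration that inhibits growth by half. Definition used: TGI = concentration required for complete inhibition of growth.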

In the case of `O=C1/C(=C/c2ccc(Cl)cc2)CN(Cc2cn(CCCNc3ccnc4cc(Cl)ccc34)nn2)C/C1=C\c1ccc(Cl)cc1`, the GI50 was 0.305 µM in [1]; 1.46 µM in experiment [2]; 0.291 µM in experiment [3]; 0.391 µM in experiment [4]; 1.82 µM in experiment [5]; 0.96 µM in [6]. Further, the GI50 in [7] is 0.379 µM; in [8] it was 1.7 µM; in experiment [9], 0.269 µM; in experiment [10] it was 1.77 µM. Further, the TGI in experiment [1] came to 0.833 µM; in [2] it was 3.18 µM; in experiment [3], 1.11 µM; in experiment [4] it was 1.59 µM; in experiment [5], 3.41 µM; in experiment [6], 2.77 µM. The TGI was 1.93 µM in experiment [7], 3.15 µM in experiment [8], 0.9 µM in experiment [9] and 3.35 µM in experiment [10].

For the compound `O=S(=O)(NCCNc1nccc(-c2c(-c3ccc(F)cc3)nc3sccn23)n1)c1ccc(O)cc1`, the GI50 was 1.43 µM in experiment [1]; 1.31 µM in [2]; 2.05 µM in experiment [3]; 4.51 µM in [4]; 4.4 µM in experiment [5]; 3.9 µM in experiment [6]. Besides, the GI50 in experiment [7] is 1.82 µM; in experiment [8], 4.81 µM; in experiment [9] it was 1.36 µM; in experiment [10], 2.35 µM. Moreover, the TGI is 22.1 µM in [1]; 9.07 µM in [2]; 14.2 µM in [3]; 37.6 µM in [4]; 37.8 µM in experiment [5]; 76.6 µM in experiment [6]. Further, the TGI in experiment [7] was 21.5 µM; in [8], 26.3 µM; in experiment [9], 23.4 µM; in experiment [10], 18.8 µM.

Take `Cc1ccc2ncnc(N(C)C3CCCCC3)c2c1`: the GI50 is 36.7 µM in experiment [1]; 14.6 µM in experiment [2]; 35.6 µM in experiment [3]; 27.1 µM in experiment [4]; 40 µM in experiment [5]; 39.6 µM in experiment [6]. The GI50 in experiment [7] was 17.4 µM; in experiment [8], 36 µM; in [9], 59.7 µM; in experiment [10], 31.9 µM. The TGI was more than 100 µM in experiment [1]; 42.7 µM in experiment [2]; more than 100 µM in experiment [3]; 87.4 µM in [4]; more than 100 µM in experiment [5]; more than 100 µM in [6]. In addition, the TGI in [7] was 44.9 µM; in [8], more than 100 µM; in experiment [9], more than 100 µM; in experiment [10], more than 100 µM.

With `CCN1CCN(Cc2ccc(NC(=O)Nc3nc(-c4cc(OC)c(OC)c(OC)c4)cs3)cc2C(F)(F)F)CC1`, the GI50 is 1.48 µM in [1]; 1.23 µM in experiment [2]; 1.65 µM in [3]; 1.64 µM in experiment [4]; 1.65 µM in experiment [5]; 1.45 µM in experiment [6]. Further, the GI50 was 1.2 µM in [7], 1.95 µM in experiment [8], 1.37 µM in experiment [9] and 1.68 µM in experiment [10]. The TGI in experiment [1] was 2.84 µM; in experiment [2], 4.23 µM; in experiment [3], 3.35 µM; in experiment [4], 6.99 µM; in experiment [5], 3 µM; in experiment [6] it was 3.19 µM. Besides, the TGI in experiment [7] amounted to 3.08 µM; in [8], 4.25 µM; in [9], 2.81 µM; in experiment [10], 3.18 µM.

As to `CC[C@]12C=CCN3CC[C@]4(C(=C(C(=O)OC)C1)Nc1cc5c(cc14)[C@@H]1[C@H](O5)[C@@H](O)[C@@]4(CC)CC(C(=O)OC)=C5Nc6ccccc6[C@@]56CCN1[C@@H]46)[C@@H]32`, the GI50 in experiment [1] was 0.216 µM and 0.341 µM; in [2] it was 0.114 µM and 0.138 µM; in experiment [3], 0.76 µM and 0.471 µM; in experiment [4] it was 0.435 µM and 0.776 µM; in experiment [5], 1.07 µM and 1.32 µM; in experiment [6], 0.464 µM and 0.499 µM. Further, the GI50 in experiment [7] is 0.0922 µM and 0.146 µM; in [8], 0.185 µM and 0.402 µM; in [9] it was 0.467 µM and 0.318 µM; in [10], 0.137 µM and 0.158 µM. The TGI in experiment [1] is 2.59 µM and 1.65 µM; in [2] it was 12.4 µM and 9.48 µM; in experiment [3] it was 8.41 µM and 5.92 µM; in experiment [4] it was 25 µM and 16.2 µM; in experiment [5], 9.29 µM and 24.2 µM; in [6], 25 µM and 33.5 µM. Also, the TGI in [7] is 25 µM and > 100 µM.

For the compound `C=C(C(=O)c1ccccc1)C(NC(C)(C)C)c1ccccc1` (stereo not given), the GI50 in experiment [1] is 1.33 µM; in experiment [2], 2.38 µM; in [3] it was 2.22 µM; in [4], 3.26 µM; in [5] it was 1.84 µM; in experiment [6] it was 2.12 µM. Also, the GI50 in experiment [7] is 1.56 µM; in experiment [8], 1.02 µM; in experiment [9] it was 2.2 µM; in experiment [10] it was 1.54 µM. The TGI was 2.92 µM in [1]; 6.83 µM in [2]; 6.36 µM in experiment [3]; 13 µM in experiment [4]; 3.72 µM in experiment [5]; 5.38 µM in experiment [6]. The TGI in experiment [7] is 8.41 µM; in experiment [8] it was 2.25 µM; in experiment [9], 6.21 µM; in experiment [10] it was 4.02 µM.

`CCCCCCCCCCCCC(O)C1CCC(C(O)CCCCC(O)CCCCCC2CC(CC(C)=O)C(=O)O2)O1` (stereo not given): the GI50 in experiment [1] was 1.93 µM; in [2], 3.38 µM; in experiment [3], 7.64 µM; in experiment [5], 2.85 µM; in experiment [6], 2.54 µM; in experiment [7], 2.8 µM. Also, the results for the GI50 in experiment [8] and in [10] were 2.4 µM and 1.38 µM, respectively. Besides, the TGI is 14.8 µM in experiment [1]; 9.29 µM and 12.5 µM in [2]; 4.89 µM and 20.5 µM in experiment [3]; 4.24 µM in experiment [4]; 14 µM in [5]; 8.27 µM and 20.2 µM in [6]. The TGI in [7] is 6.93 µM and 25.5 µM; in experiment [8], 14.1 µM; in experiment [9], 18.2 µM; in experiment [10] it was 3.66 µM and 16.3 µM.
